According to publication PMC9220111, “Pharmacokinetics and Pharmacodynamics of Colistin Methanesulfonate in Healthy Chinese Subjects after Multi-Dose Regimen” (Antibiotics, 2022):
Where two headings read alike, the source gives them in different places. Positions of bridges follow the written chain, without caps; N, C: chain ends. Non-standard residues stand in square brackets, D forms with d. Residues, ends and D or L forms follow the SMILES beside them. *: point of attachment. X1 = CC[C@H](C)CCCCC(=O)*; Dab = NCC[C@H](N)C(=O)O

Key:
[1] = cited from earlier work
Procedure: CMS in clinic has generally been expressed as the internationally accepted term of c ... || A new CMS formula was produced with a 4:1 ratio of CMS A:CMS B, and met the requirements of the European Pharmacopoeia EP9.2 [9]. […] The Cavg,ss (95% CI) was 0.92 (0.85, 0.99) μg/mL after 7 days of 2.5 mg/kg CBA every 12 h (q12 h) administration of this new formulation, as simulated by the obtained single-dose PK parameters. The purpose of this study was to investigate the PK characteristics of CMS and colistin in plasma and urine following multip ... || This study evaluated the applicability of CMS at the recommended dosing regimen (2.5 mg/kg CBA q12 h) for the first time in Chinese subjects.

[2] = value used to calculate fAUC0–24; cited from earlier work
Procedure: The target values of fAUC0–24/MIC used in this study were from published PK/PD study reports of colistin, conducted on animal infection models. […] The free colistin fraction f used was 50% [6, 31]. AUC0–24,ss values from this study were calculated as 2 times AUC0–12 on day 7 based on the twi ...

[3] = Plasma pharmacokinetics of CMS and colistin after multi-dose intravenous infusions of CMS; details: for CLr: renal clearance; for clearance: CLt; for Cmax: healthy Chinese subjects, UPLC-MS/MS
Procedure: A single-center, open-label, multi-dose trial design was conducted following multiple intravenous administrations of CMS in 12 healthy Chinese subjects.
The dose regimen was 2.5 mg/kg CBA for 7 consecutive days with 12 h between each administration, except for one dose on day 1 (first dose) and day 7 (last dose). Each intravenous infusion time was 90 ± 10 min.
The blood samples were collected on day 1 and day 7 at pre-dose during intravenous infusion (30 min and 60 min after the start of intravenous infusion), immediately after the end of intravenous infusion (1.5 h) and at 1.75 h, 2 h, 2.5 h, 3.5 h, 5 h, 7 h, 9 h, 12 h, 16 h and 24 h after the start of intravenous infusion. From day 2 to day 6, blood samples were collected before and immediately after the end of infusion of the first dose. All blood samples were collected and transferred into an EDTA-K2 tube, and were then centrifuged at 3500 rpm for 10 min at 4 °C. Within 1 h after blood collection, the plasma samples were stored at −70 ± 10 °C until analysis [10].
The concentrations of CMS and colistin in plasma and urine samples were analyzed with a verified ultra-performance liquid chromatography tandem mass spectrometry method [30]. To determine the free colistin concentration, the matrix was alkalized with 5% ammonia at 0–4 °C, and CMS concentrations were obtained with acid hydrolysis, and then loaded onto the Oasis weak cation exchange 96-well plate (WCX, Waters, Milford, MA, USA). The standard curves of colistin A/colistin B for the plasma and urine samples ranged from 0.0446/0.0332–4.46/3.32 μg/mL to 0.0223/0.0166–2.23/1.66 μg/mL [10], respectively. The concentrations of colistin and CMS were determined as the major components of colistin A+ colistin B and colistin A methanesulfonate (CMS A) + colistin B methanesulfonate (CMS B), respectively.
The PK parameters of CMS and colistin in plasma were calculated by the non-compartment model [23] using the WinNonlin8.0 software (Pharsight, Mountain View, CA, USA). […] The urine excretion rate was calculated according to the correction of renal clearance (CLr). The PK parameters in urine samples calculated included interval urinary excretion rate, cumulative urinary excretion rate and CLr.
The PK parameters were expressed as average ± standard deviation (mean ± SD). The main PK parameters after the first and last doses were evaluated by paired t test (SAS 9.4, SAS Institute, Inc., Cary, NC, USA). p value ≤ 0.05 was considered as significant.

[4] = Urine excretion of CMS and colistin after multi-dose intravenous infusions of CMS; format: in vivo; details: human, 12 subjects, mean ± SD, read-out: Cumulative urine excretion rate within 0–24 h
Procedure: Urine samples (700 μL) were mixed with equal volume of 1% bovine serum albumin (BSA) prior and stored at −70 ± 10 °C until analysis.

[5] = system: extremely drug-resistant (XDR) P. aeruginosa; details: cited from earlier work
[6] = earlier CMS formula, CMS A:CMS B 1:2, healthy Chinese subjects
[7] = Day 7 (last dose, steady state), CMS 2.5 mg/kg CBA i.v. q12 h 7 days, plasma, mean ± SD, n = 12, SD
[8] = human, plasma, iv, 2.5 mg/kg CBA, Day 1 (first dose), CMS 2.5 mg/kg CBA i.v., mean ± SD, n = 12, SD
[9] = human, plasma, iv, 2.5 mg/kg CBA, Day 7 (last dose, steady state), CMS 2.5 mg/kg CBA i.v. q12 h 7 days, mean ± SD, n = 12, SD
[10] = human, plasma, iv, 2.5 mg/kg CBA, SD
[11] = 33 patients with XDR P. aeruginosa UTIs

## CC[C@H](C)CCCCC(=O)N[C@@H](CCN)C(=O)N[C@H](C(=O)N[C@@H](CCN)C(=O)N[C@H]1CCNC(=O)[C@H]([C@@H](C)O)NC(=O)[C@H](CCN)NC(=O)[C@H](CCN)NC(=O)[C@H](CC(C)C)NC(=O)[C@@H](CC(C)C)NC(=O)[C@H](CCN)NC1=O)[C@@H](C)O [colistin] (X1-[Dab]T[Dab][Dab][Dab][dL]L[Dab][Dab]T; lactam 4-C)
[1]; 51 critically ill patients with normal renal function (CLCr ≥ 80 mL/min), FDA-recommended dose 2.5–5 mg CBA/kg
  plasma Cavg,ss of colistin: 1.29 (0.45–5.28) μg/mL
[1]; 87 critically ill patients with CrCL >120 mL/min, loading dose 9 MIU then 4.5 MIU twice daily
  median Cavg,ss concentration: 1.6 (0.4–4.8) μg/mL
[1]; 214 patients with different renal functions
  median concentration (plasma Cavg,ss of colistin): 2.35 (0.24–9.92) μg/mL
[1]; [6]
  AUC0–12,ss: 9.23 ± 1.79 µg·h/mL
  Cavg,ss: 0.760 ± 0.151 µg/mL
[1]; healthy Japanese subjects, CMS 2.5 mg/kg CBA i.v. twice a day for 2.5 days
  AUC0–12,ss: 25.70 ± 7.49 µg·h/mL
[1]; patients with normal renal function at the recommended doses of EMA and FDA
  Patients achieving Cavg,ss at ≥1 μg/mL: 65–75%
[1]; simulated from single-dose PK parameters, 7 days of 2.5 mg/kg CBA q12 h of the new formulation
  Cavg,ss (95% CI): 0.92 (0.85, 0.99) μg/mL
[2]
  free colistin fraction f: 50%
[3]; Day 1 (first dose), CMS 2.5 mg/kg CBA i.v., mean ± SD, n = 12, day 1 urine stored without BSA, for reference only, SD
  CLr: 0.8 ± 0.4 mL/h/kg
[3]; Day 7 (last dose), CMS 2.5 mg/kg CBA i.v. q12 h 7 days, mean ± SD, n = 12, SD
  CLr: 1.5 ± 0.7 mL/h/kg
[3]; [7]
  Cavg,ss: 1.27 ± 0.27 µg/mL
  Cmin,ss: 0.67 ± 0.22 µg/mL
[3]; Day 7, after 7 consecutive days of CMS 2.5 mg/kg CBA i.v. q12 h, mean ± SD, n = 12, SD
  AI (accumulation index): 1.32 ± 0.06
[3]; human, plasma, iv, 2.5 mg/kg CBA, AUC0–12 (AUC0–12,ss), Day 7 (last dose, steady state), CMS 2.5 mg/kg CBA i.v. q12 h 7 days, plasma, mean ± SD, n = 12, SD
  AUC(0-t): 15300 ± 3290 ng·h/mL
[3]; human, plasma, iv, 2.5 mg/kg CBA, AUC0–12, Day 1 (first dose), CMS 2.5 mg/kg CBA i.v., plasma, mean ± SD, n = 12, SD
  AUC(0-t): 9800 ± 1710 ng·h/mL
[3]; human, plasma, iv, 2.5 mg/kg CBA, AUC0–24, Day 1 (first dose), CMS 2.5 mg/kg CBA i.v., plasma, mean ± SD, n = 12, SD
  AUC(0-t): 12600 ± 2550 ng·h/mL
[3]; [8]
  clearance: 3.5 mL/min/kg
  Vd: 1.52 ± 0.22 L/kg
[3]; [9]
  clearance: 3 mL/min/kg
  Vd: 1.66 ± 0.25 L/kg
[3]; human, plasma, iv, 2.5 mg/kg CBA, Day 1 (first dose), CMS 2.5 mg/kg CBA i.v. infusion 90 min, plasma, non-compartment model, mean ± SD, n = 12, SD
  Cmax: 1170 ± 180 ng/mL
[3]; human, plasma, iv, 2.5 mg/kg CBA, Day 7 (last dose, steady state), CMS 2.5 mg/kg CBA i.v. q12 h 7 days, plasma, mean ± SD, n = 12, SD
  Cmax: 1790 ± 370 ng/mL
[3]; human, plasma, iv, 2.5 mg/kg CBA, T1/2, Day 1 (first dose), CMS 2.5 mg/kg CBA i.v., plasma, mean ± SD, n = 12, SD
  half-life: 309 ± 57 min
[3]; human, plasma, iv, 2.5 mg/kg CBA, T1/2, Day 7 (last dose), CMS 2.5 mg/kg CBA i.v. q12 h 7 days, plasma, mean ± SD, n = 12, SD
  half-life: 354 ± 34.8 min
[3]; human, plasma, iv, 2.5 mg/kg CBA, T1/2, median, after the first dose, median, n = 12
  half-life: 298 min
[3]; human, plasma, iv, 2.5 mg/kg CBA, T1/2, median, after the last dose, median, n = 12
  half-life: 366 min
[3]; human, plasma, iv, 2.5 mg/kg CBA, Day 1 (first dose), CMS 2.5 mg/kg CBA i.v., plasma, mean ± SD, n = 12, SD
  Tmax: 4.42 ± 0.9 h
[3]; human, plasma, iv, 2.5 mg/kg CBA, Day 7 (last dose), CMS 2.5 mg/kg CBA i.v. q12 h 7 days, plasma, mean ± SD, n = 12, SD
  Tmax: 3.38 ± 0.68 h
[3]; human, plasma, iv, 2.5 mg/kg CBA, median, after the first dose, median, n = 12
  Tmax: 5 h
[3]; human, plasma, iv, 2.5 mg/kg CBA, median, after the last dose, median, n = 12
  Tmax: 3.5 h
[3]; [10]
  level at 48 h: 93 ± 42.8 ng/mL
  level at 72 h: 632 ± 155 ng/mL
  level at 96 h: 684 ± 177 ng/mL
  level at 120 h: 738 ± 217 ng/mL
  level at 144 h: 754 ± 238 ng/mL
[4]; after the first dose, CMS 2.5 mg/kg CBA i.v., day 1 urine stored without BSA, for reference only
  dose excreted: 0.41 ± 0.28%
[4]; urine, 2.5 mg/kg CBA, after the last dose (steady state), CMS 2.5 mg/kg CBA i.v. q12 h 7 days
  dose excreted: 1.22 ± 0.7%
[5]; [11]
  AUC0–24/MIC: 60.5 ± 56.4
  fAUC0–24/MIC: 30.2 ± 28.2
[5]; patients with XDR P. aeruginosa UTIs
  Cavg,ss: 1.19 (0.21–5.20) μg/mL
